Target: T1, WT holoALAS2 (residues 54–587) (Homo sapiens, UniProt P22557)
T1 construct: His6-SUMO (N, cleaved yes); made in house; host or cells: Escherichia coli BL21-Codon Plus (DE3)-RIL
T1 sequence (P22557 54-587): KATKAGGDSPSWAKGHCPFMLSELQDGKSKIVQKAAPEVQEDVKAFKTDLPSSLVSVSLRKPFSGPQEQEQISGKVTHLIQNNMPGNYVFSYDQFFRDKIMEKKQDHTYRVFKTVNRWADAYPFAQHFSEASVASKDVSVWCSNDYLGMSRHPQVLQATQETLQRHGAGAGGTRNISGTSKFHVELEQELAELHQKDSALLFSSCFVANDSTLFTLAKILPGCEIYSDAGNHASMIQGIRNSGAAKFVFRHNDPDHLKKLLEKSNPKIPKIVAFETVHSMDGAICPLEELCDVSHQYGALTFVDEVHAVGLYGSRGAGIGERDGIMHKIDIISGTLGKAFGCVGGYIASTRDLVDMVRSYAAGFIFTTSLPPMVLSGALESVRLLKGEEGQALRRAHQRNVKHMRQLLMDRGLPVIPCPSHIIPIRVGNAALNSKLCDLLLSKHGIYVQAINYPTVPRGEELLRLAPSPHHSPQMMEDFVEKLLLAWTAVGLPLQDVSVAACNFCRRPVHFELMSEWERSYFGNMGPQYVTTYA
Test: Succinyl-CoA:hemin competition analysis
Assay type: biochemical
Conditions: succinyl-CoA varied; for Km: 95% confidence interval in brackets
Protocol: A discontinuous colorimetric activity assay adapted from Shoolingin-Jordan et al. and Bailey et al. was used to measure the enzyme activity ([48], [74]). The reaction was initiated by adding 100 nM purified enzyme to 50 mM potassium phosphate, pH 7.0, 10 mM MgCl2, 1 mM DTT, 100 mM glycine, and 300 μM succinyl-CoA (175 μl total). The reaction was incubated at 37 °C for 15 min and terminated with 100 μl of cold 10% trichloroacetic acid. The precipitated protein was removed by centrifugation for 5 min at 13,000g, and 240 μl of the supernatant was mixed with 240 μl of 1 M sodium acetate, pH 4.6. To derivatize ALA, 20 μl of acetylacetone was added to the mixture and boiled at 100 °C for 10 min. After the sample was cooled for 20 min, 100 μl aliquots were transferred into a clear 96-well plate in triplicate. An equal volume of Ehrlich’s reagent (p-Dimethylaminobenzaldehyde, DMAB) was added to each well, and the absorbance was monitored at 553 nm using a microplate reader (Thermo Fisher Scientific). The peak absorbance value was converted to molar ALA concentration using ε553 = 60,400 M^−1 cm^−1.
For inhibitor competition experiments, the apoenzymes were preincubated with hemin or PLP (0–100 μM) for 15 min at 25 °C in the dark before initiating the reaction. Next, either PLP or hemin (0–100 μM) was titrated into the reactions to measure enzyme activation after hemin inhibition or enzyme inhibition of the PLP-treated apoenzyme, respectively. For succinyl-CoA:hemin competition analyses, the WT holoenzyme was mixed with hemin (0, 25, 50, and 100 μM), followed by the addition of increasing succinyl-CoA concentrations (0, 25, 50, 100, 250, and 500 μM). All experiments were performed with a minimum of three biological replicates, each with three technical replicates. Data were fit using nonlinear regression to generate an agonist dose-response curve (EC50) or an inhibitor dose-response curve (IC50). Lineweaver-Burk analysis was performed using the resulting kinetic parameters (Vmax and KM) in GraphPad Prism 10.

Substance: succinyl-CoA
- Vmax (hemin 0 μM): 337.15 [445.63, 271.22] nmol/min/mg
- Km (hemin 0 μM): 178 µM
- Vmax (hemin 25 μM): 109.04 [132.82, 92.51] nmol/min/mg
- Km (hemin 25 μM): 54.8 µM
- Vmax (hemin 50 μM): 45.98 [63.13, 36.15] nmol/min/mg
- Km (hemin 50 μM): 46.2 µM
- Vmax (hemin 100 μM): 37.50 [60.98, 27.07] nmol/min/mg
- Km (hemin 100 μM): 39.2 µM

— paper PMC12856317, “A reversible feedback mechanism regulating mitochondrial heme synthesis” (The Journal of Biological Chemistry, 2025)
